Test results as given in EP0968998A1, “Cosmetic compositions, ceramide analogues with anti-elastase activity and process for their preparation” (ELF ATOCHEM S.A., priority 1998, dated 2000).

Assays:
[1] = target: T1, élastase de leucocytes humains (Homo sapiens, UniProt P08246); experiment: Anti-elastase activity: release of p-nitroaniline from N-succinyl-(Ala)3-p-nitroanilide, spectrophotometry at 410 nm; assay type: biochemical; conditions: pH 8, 37°C, pH8, 5 min preincubation, substrate 250 µM, read-out: % I (%)
T1 construct: purchased Elastin Products Co. SE 563; host or cells: human leukocytes, as the enzyme's name says
T1 sequence (P08246 30-267): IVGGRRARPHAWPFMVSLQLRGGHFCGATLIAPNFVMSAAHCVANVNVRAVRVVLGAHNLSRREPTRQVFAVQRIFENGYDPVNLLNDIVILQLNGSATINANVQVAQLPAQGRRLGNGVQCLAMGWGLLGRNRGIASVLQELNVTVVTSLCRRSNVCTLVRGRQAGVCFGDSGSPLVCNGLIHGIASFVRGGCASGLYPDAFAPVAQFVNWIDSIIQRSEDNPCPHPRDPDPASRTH
Description: Les exemples qui suivent permettent d'illustrer l'invention. Dans ces exemples, on utilise les méthodes d'analyse suivantes : - Spectrographie infrarouge (IR) Les spectres sont réalisés au moyen d'un appareil PERKIN ELMER 1760 IRTF, en dispersion dans KBr à 1 %. Les valeurs sont exprimées en nombre d'onde par centimètre. - Résonance magnétique nucléaire (RMN) Les spectres sont réalisés au moyen d'un appareil BRUCKER DRX 500, à 500 MHz (^1H) et 125 MHz (^13C) dans le DMSO-d6. La calibration de l'appareil est effectuée au moyen de DMSO. Les déplacements chimiques sont exprimés en ppm. L'aspect des signaux est noté : singulet (s), doublet (d), triplet (t), quadruplet (q), multiplet (m), quintuplet (*5) et couplage AB (AB). - Mesure de l'activité anti-élastase L'activité anti-élastase est mesurée selon la méthode qui consiste à faire réagir l'élastase de leucocytes humains (référence SE 563; Elastin Products Co.; Owensville, MO, USA) avec le N-succinyl-(Ala)3-p-nitroanilide (réf. S4760; Sigma) et mesurer la libération de p-nitroaniline. On utilise le N-succinyl-(Ala)3-p-nitroanilide en solution dans le tétrahydrofurane et une solution d'élastase à 100 mg/ml dans un mélange de glycérol et de tampon acétate de sodium (50/50; v/v), pH5. L'activité de l'enzyme est mesurée à 37°C dans 100 mM de tampon Tris-HCI, pH8 contenant 0,01 % de Triton X-100 (volume/volume) et 0,02 % d'azide de sodium (poids/volume). Le céramide à tester, solubilisé dans le tétrahydrofurane (concentration en THF = 0,5 % en volume) est préincubé en présence de l'enzyme (0,05 mg/ml) dans le tampon pendant 5 minutes à 37°C. On ajoute le N-succinyl-(Ala)3-p-nitroanilide (concentration finale : 250 µM) et on mesure la libération de la p-nitroaniline dans une cuve en quartz par spectrophotométrie à 410 nm. La capacité inhibitrice du céramide est exprimée en pourcentage d'inhibition (% I) selon la relation : %I = (1 -(Vi)/(Vo))×100 [formula] dans laquelle Vi et Vo sont les vitesses d'apparition de la p-nitroaniline en présence et en absence d'inhibiteur respectivement. - Mesure de l'amélioration de la barrière cutanée a) mesure de la Perte Insensible en Eau (PIE) La mesure de la PIE permet de quantifier la très faible quantité d'eau qui diffuse passivement à travers le stratum corneum. Ce paramètre représente un très bon index de la fonction barrière du stratum corneum. Cette méthode est surtout utilisée pour contrôler l'efficacité de formules cosmétiques qui, contenant certains types de lipides sont capables de diminuer la PIE et, en conséquence, d'empêcher la déshydratation du stratum corneum. La sonde est laissée en contact de la peau pendant 2 minutes environ de façon à atteindre une position d'équilibre. PIE = D'(dP)/(dx)(gradient de pression de vapeur) [formula] Les valeurs sont exprimées en g/m^2/heure et permettent de calculer un delta de PIE = PIE (peau traitée) - PIE (peau témoin). L'appareil utilisé est un Evaporimètre EPI de Servomed. Les mesures sont effectuées sur deux groupes de 15 volontaires sains ayant une peau sèche, avant l'application du produit (t=0) et après l'application (t=0,5 heure, 1 heure, 3 heures et 6 heures) sur la face interne des deux avant-bras. L'analogue de céramide selon l'invention ou le céramide témoin est incorporé dans une crème ayant la composition suivante (en % en poids) : […]

[2] = test system: stratum corneum; experiment: Skin hydration: capacitance measurement (Corneometer Courage+Khazaka CM 200), hydration index, cream applied to forearm; assay type: in vivo, volontaires sains ayant une peau sèche; conditions: for Indice d'Hydratation (IH) M±s: cream with 0,5 % (ex. 7, témoins), 1 % (ex. 4, 8), 5 % (ex. 6)
Description: (§1) Les exemples qui suivent permettent d'illustrer l'invention. […] Les valeurs sont exprimées en nombre d'onde par centimètre. - Résonance magnétique nucléaire (RMN) Les spectres sont réalisés au moyen d'un appareil BRUCKER DRX 500, à 500 MHz (^1H) et 125 MHz (^13C) dans le DMSO-d6. La calibration de l'appareil est effectuée au moyen de DMSO. Les déplacements chimiques sont exprimés en ppm. […] On utilise le N-succinyl-(Ala)3-p-nitroanilide en solution dans le tétrahydrofurane et une solution d'élastase à 100 mg/ml dans un mélange de glycérol et de tampon acétate de sodium (50/50; v/v), pH5. L'activité de l'enzyme est mesurée à 37°C dans 100 mM de tampon Tris-HCI, pH8 contenant 0,01 % de Triton X-100 (volume/volume) et 0,02 % d'azide de sodium (poids/volume). Le céramide à tester, solubilisé dans le tétrahydrofurane (concentration en THF = 0,5 % en volume) est préincubé en présence de l'enzyme (0,05 mg/ml) dans le tampon pendant 5 minutes à 37°C. On ajoute le N-succinyl-(Ala)3-p-nitroanilide (concentration finale : 250 µM) et on mesure la libération de la p-nitroaniline dans une cuve en quartz par spectrophotométrie à 410 nm. La capacité inhibitrice du céramide est exprimée en pourcentage d'inhibition (% I) selon la relation : %I = (1 -(Vi)/(Vo))×100 [formula] dans laquelle Vi et Vo sont les vitesses d'apparition de la p-nitroaniline en présence et en absence d'inhibiteur respectivement. - Mesure de l'amélioration de la barrière cutanée a) mesure de la Perte Insensible en Eau (PIE) La mesure de la PIE permet de quantifier la très faible quantité d'eau qui diffuse passivement à travers le stratum corneum. Ce paramètre représente un très bon index de la fonction barrière du stratum corneum. Cette méthode est surtout utilisée pour contrôler l'efficacité de formules cosmétiques qui, contenant certains types de lipides sont capables de diminuer la PIE et, en conséquence, d'empêcher la déshydratation du stratum corneum. La sonde est laissée en contact de la peau pendant 2 minutes environ de façon à atteindre une position d'équilibre. PIE = D'(dP)/(dx)(gradient de pression de vapeur) [formula] Les valeurs sont exprimées en g/m^2/heure et permettent de calculer un delta de PIE = PIE (peau traitée) - PIE (peau témoin). L'appareil utilisé est un Evaporimètre EPI de Servomed. Les mesures sont effectuées sur deux groupes de 15 volontaires sains ayant une peau sèche, avant l'application du produit (t=0) et après l'application (t=0,5 heure, 1 heure, 3 heures et 6 heures) sur la face interne des deux avant-bras. L'analogue de céramide selon l'invention ou le céramide témoin est incorporé dans une crème ayant la composition suivante (en % en poids) :
(§2) La teneur en analogue de céramide dans la crème est égale à 0,5 % (exemple 7), 1 % (exemples 4 et 8) et 5 % (exemple 6), et celle des céramides témoins (a) et (b) est égale à 0,5 %. La diminution des valeurs de PIE signifie une amélioration de la qualité de la barrière cutanée qui traduit un meilleur pouvoir retentionnel de l'eau au niveau de la couche cornée et donc une meilleure hydratation. b) hydratation cutanée L'eau peut être considérée comme un dipôle électrique capable de conduire l'électricité. Le transport d'électricité dans un champ donné est proportionnel à la quantité d'eau présente dans le stratum corneum. Plus une peau est riche en eau et plus le courant électrique passe rapidement entre 2 électrodes. Il existe donc un lien entre l'hydratation du stratum corneum et les modifications des propriétés électriques. Les mesures de capacitance, liée à la constante diélectrique de la peau, sont réalisées par le Cornéomètre Courage+Khazaka CM 200, dont la sonde présente une surface de contact avec la peau de 49 mm^2; cette sonde est appliquée avec une pression constante sur la surface cutanée à mesurer, et l'indice d'hydratation directement proportionnel au taux hydrique de surface est instantané.

[3] = test system: stratum corneum; experiment: Skin barrier improvement: transepidermal (insensible) water loss (PIE), Servomed evaporimeter, cream applied to inner forearm; assay type: in vivo, volontaires sains ayant une peau sèche; conditions: for Perte Insensible en Eau (PIE) M±s: cream with 0,5 % (ex. 7, témoins), 1 % (ex. 4, 8), 5 % (ex. 6)
Description: as §1, §2

[4] = t=0 heure (before application, baseline)

inhibition at 250 µM ([1]; Concentration 250 µM) [%] | inhibition at 500 µM ([1]; Concentration 500 µM) [%] | Molecule | Indice d'Hydratation (IH) M±s ([2]; t=0,5 heure after application) | Indice d'Hydratation (IH) M±s [2, 4] | Indice d'Hydratation (IH) M±s ([2]; t=1 heure after application) | Indice d'Hydratation (IH) M±s ([2]; t=3 heures after application) | Indice d'Hydratation (IH) M±s ([2]; t=6 heures after application) | Perte Insensible en Eau (PIE) M±s ([3]; t=0,5 heure after application) | Perte Insensible en Eau (PIE) M±s [3, 4] | Perte Insensible en Eau (PIE) M±s ([3]; t=1 heure after application) | Perte Insensible en Eau (PIE) M±s ([3]; t=3 heures after application) | Perte Insensible en Eau (PIE) M±s ([3]; t=6 heures after application) | Perte Insensible en Eau (PIE) % évol. ([3]; t=6 heures versus t=0) [%] | Indice d'Hydratation (IH) % évol. ([2]; t=3 heures versus t=0) [%]
55 | 66 | CCCCCCCCCCCCCCCC(=O)NC(CO)COC(=O)CCCCCCCCCCCCCCC (stereo not drawn) [Exemple 1, 1-palmitoyl-2-palmitoylamino-1,3-propanediol] |  |  |  |  |  |  |  |  |  |  |  | 
 |  | CCCCCCCC/C=C\CCCCCCCC(=O)NC(CC)(CO)COC(=O)CCCCCCC/C=C\CCCCCCCC (stereo not drawn) [Exemple 6, 1-oléoyl-2-éthyl-2-oléoylamino-1,3-propanediol] | 78,53±6,23 | 61,91±6,90 | 75,29±7,78 | 67,05±5,61 | 64,56±6,14 | 3,67±1,34 g/m^2/heure | 3,96±1,60 g/m^2/heure | 3,48±1,19 g/m^2/heure | 3,39±1,20 g/m^2/heure | 3,97±1,20 g/m^2/heure | 0 | 
 |  | CCCCCCCCCCCCCCCCCC(=O)NC(C)(CO)COC(=O)CCCCCCCCCCCCCCCCC (stereo not drawn) [Exemple 7, 1-stéaroyl-2-méthyl-2-stéaroylamino-1,3-propanediol] | 66,13±5,48 | 60,13±6,27 | 65,56±6,24 | 63,82±7,05 | 61,55±6,32 | 4,07±1,72 g/m^2/heure | 4,50±2,0 g/m^2/heure | 3,78±1,67 g/m^2/heure | 3,70±1,50 g/m^2/heure | 4,46±1,64 g/m^2/heure |  | 
 |  | CCCCCCCCCCCCCCCCCC(=O)NC(CO)(CO)COC(=O)CCCCCCCCCCCCCCCCC [Exemple 8, 1-stéaroyl-2-hydroxyméthyl-2-stéaroylamino-1,3-propanediol] | 67,16±7,98 | 64,13±8,01 | 67,04±7,74 | 64,13±8,37 | 64,87±7,83 | 4,28±1,38 g/m^2/heure | 4,52±1,02 g/m^2/heure | 3,12±1,11 g/m^2/heure | 4,62±1,14 g/m^2/heure | 4,55±1,39 g/m^2/heure |  | 0
 |  | CCCCCCCCCCCCCCCCCC(=O)N[C@@H](CO)[C@H](O)[C@H](O)CCCCCCCCCCCCCC [Témoin (b), N-stéaroyl phytosphingosine, reference compound] | 67,55±7,89 | 61,00±7,21 | 67,45±7,33 | 63,20±5,36 | 61,36±3,79 | 4,09±1,86 g/m^2/heure | 4,22±2,17 g/m^2/heure | 3,80±1,75 g/m^2/heure | 3,53±1,57 g/m^2/heure | 4,36±1,82 g/m^2/heure |  | 
 |  | N-stéaroyl-D,L-sphingosine [Témoin (a), reference compound] | 67,11±7,74 | 63,95±8,45 | 67,93±9,08 | 62,67±6,59 | 63,47±6,46 | 3,91±1,40 g/m^2/heure | 4,40±0,90 g/m^2/heure | 3,37±1,00 g/m^2/heure | 4,20±1,09 g/m^2/heure | 4,11±1,41 g/m^2/heure |  | 
